Experimental data as given in ChEMBL document CHEMBL1177655, “Synthesis and inhibitory activities of novel C-3 substituted azafagomines: a new type of selective inhibitors of α-L-fucosidases” (Bioorg Med Chem, 2010).
Active and inactive are the calls of the source. The calls are words filed in the database; no cut-off is given here.

Legend:
[1] = biological target: T1, Tissue alpha-L-fucosidase (Bos taurus) (UniProt Q2KIM0); assay: Inhibition of bovine kidney alpha L-fucosidase at 1 mM
T1 sequence (whole entry): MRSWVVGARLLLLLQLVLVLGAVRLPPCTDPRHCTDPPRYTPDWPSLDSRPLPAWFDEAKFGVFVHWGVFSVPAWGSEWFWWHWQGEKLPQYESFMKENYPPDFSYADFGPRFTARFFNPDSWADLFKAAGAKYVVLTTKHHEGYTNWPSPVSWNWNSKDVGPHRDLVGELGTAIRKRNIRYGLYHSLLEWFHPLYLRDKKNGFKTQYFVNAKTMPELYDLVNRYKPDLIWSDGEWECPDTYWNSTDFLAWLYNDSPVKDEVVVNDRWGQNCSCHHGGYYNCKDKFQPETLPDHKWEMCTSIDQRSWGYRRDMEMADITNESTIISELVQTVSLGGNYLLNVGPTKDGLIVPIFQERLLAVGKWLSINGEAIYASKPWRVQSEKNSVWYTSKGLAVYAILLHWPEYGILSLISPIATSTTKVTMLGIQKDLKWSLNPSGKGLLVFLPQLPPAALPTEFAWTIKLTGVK

Aspergillus niger [2] = assay: Inhibition of Aspergillus niger amyloglucosidase at 1 mM
Saccharomyces cerevisiae [3] = assay: Inhibition of yeast maltase at 1 mM
Prunus dulcis [4] = assay: Inhibition of almond beta glucosidase at 1 mM
[5] = biological target: T2, Tissue alpha-L-fucosidase (Bos taurus, UniProt Q2KIM0); assay: Inhibition of bovine kidney alpha L-fucosidase
T2 sequence (Q2KIM0 whole entry): T1 sequence (whole entry)

[6] = biological target: Beta-galactosidase (Escherichia coli K-12) (UniProt P00722); assay: Inhibition of Escherichia coli beta galactosidase at 1 mM
Aspergillus niger [7] = assay: Inhibition of Aspergillus niger amyloglucosidase at 0.1 mM
[8] = biological target: Beta-galactosidase (Escherichia coli K-12) (UniProt P00722); assay: Inhibition of Escherichia coli beta galactosidase at 0.1 mM
[9] = biological target: T1, Tissue alpha-L-fucosidase (Bos taurus); assay: Inhibition of bovine kidney alpha L-fucosidase at 0.1 mM
Saccharomyces cerevisiae [10] = assay: Inhibition of yeast maltase at 0.1 mM
Prunus dulcis [11] = assay: Inhibition of almond beta glucosidase at 0.1 mM

Chain of Beta-galactosidase (Escherichia coli K-12) (P00722 whole entry): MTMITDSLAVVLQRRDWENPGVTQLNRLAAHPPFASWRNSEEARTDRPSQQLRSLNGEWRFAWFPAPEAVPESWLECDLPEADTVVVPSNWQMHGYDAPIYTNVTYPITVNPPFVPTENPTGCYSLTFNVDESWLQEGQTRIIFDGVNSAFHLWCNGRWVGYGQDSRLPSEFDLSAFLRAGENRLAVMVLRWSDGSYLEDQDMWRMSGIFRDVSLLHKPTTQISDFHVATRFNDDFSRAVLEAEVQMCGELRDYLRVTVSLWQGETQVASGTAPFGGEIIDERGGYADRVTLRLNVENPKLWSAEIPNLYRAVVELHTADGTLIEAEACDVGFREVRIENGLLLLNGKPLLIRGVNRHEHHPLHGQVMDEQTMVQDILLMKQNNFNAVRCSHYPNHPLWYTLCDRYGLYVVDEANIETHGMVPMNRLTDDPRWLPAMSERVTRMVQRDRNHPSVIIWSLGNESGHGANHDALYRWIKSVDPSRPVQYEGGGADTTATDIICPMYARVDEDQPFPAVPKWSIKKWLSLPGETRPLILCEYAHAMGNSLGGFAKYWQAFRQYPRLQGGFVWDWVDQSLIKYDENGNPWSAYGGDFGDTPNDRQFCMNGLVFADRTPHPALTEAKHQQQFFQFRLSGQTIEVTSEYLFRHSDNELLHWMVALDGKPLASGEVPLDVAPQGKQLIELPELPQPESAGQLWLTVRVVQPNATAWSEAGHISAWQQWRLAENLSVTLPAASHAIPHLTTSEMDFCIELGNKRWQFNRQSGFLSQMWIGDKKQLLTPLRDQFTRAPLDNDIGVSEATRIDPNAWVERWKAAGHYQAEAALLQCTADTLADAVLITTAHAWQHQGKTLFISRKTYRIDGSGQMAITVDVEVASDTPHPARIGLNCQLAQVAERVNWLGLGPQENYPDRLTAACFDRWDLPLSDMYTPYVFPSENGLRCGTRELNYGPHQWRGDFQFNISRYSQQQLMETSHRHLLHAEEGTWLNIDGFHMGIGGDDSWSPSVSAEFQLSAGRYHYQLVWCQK

## C[C@@H]1NN[C@@H](CNC(=O)[C@@H](N)Cc2ccccc2)[C@H](O)[C@@H]1O
[1]
  inhibition: 82%
Aspergillus niger [2]
  inhibition: inactive
Saccharomyces cerevisiae [3]
  inhibition: inactive
Prunus dulcis [4]
  inhibition: inactive
[5]
  IC50: 283 µM
[6]
  inhibition: inactive

## C[C@@H]1[C@@H](O)[C@@H](O)[C@H](CNC(=O)c2ccc(-c3ccccc3)cc2)NN1C(=O)OCc1ccccc1
Aspergillus niger [7]
  inhibition: inactive
[8]
  inhibition: inactive
[9]
  inhibition: inactive
Saccharomyces cerevisiae [10]
  inhibition: inactive
Prunus dulcis [11]
  inhibition: inactive

## C[C@H]1NN[C@@H](CO)[C@H](O)[C@@H]1O
[1]
  inhibition: 17%
Aspergillus niger [2]
  inhibition: inactive
Saccharomyces cerevisiae [3]
  inhibition: inactive
Prunus dulcis [4]
  inhibition: 23%
[6]
  inhibition: inactive

## CCCCCCCCCCCC(=O)NC[C@@H]1NN(C(=O)OCc2ccccc2)[C@@H](C)[C@@H](O)[C@H]1O
[9]
  inhibition: 5%
Aspergillus niger [2]
  inhibition: inactive
Saccharomyces cerevisiae [3]
  inhibition: inactive
Prunus dulcis [4]
  inhibition: inactive
[6]
  inhibition: inactive

## CCCCCCCCCCCC(=O)NC[C@@H]1NN[C@H](C)[C@@H](O)[C@H]1O
[1]
  inhibition: 40%
Aspergillus niger [2]
  inhibition: 24%
Saccharomyces cerevisiae [3]
  inhibition: inactive
Prunus dulcis [4]
  inhibition: inactive
[6]
  inhibition: inactive

## C[C@H]1NN[C@@H](CN)[C@H](O)[C@@H]1O
[1]
  inhibition: 53%
Aspergillus niger [2]
  inhibition: inactive
Saccharomyces cerevisiae [3]
  inhibition: inactive
Prunus dulcis [4]
  inhibition: inactive
[6]
  inhibition: inactive

## C[C@H]1[C@@H](O)[C@@H](O)[C@H](CN)NN1C(=O)OCc1ccccc1
[1]
  inhibition: 92%
Aspergillus niger [2]
  inhibition: inactive
Saccharomyces cerevisiae [3]
  inhibition: inactive
Prunus dulcis [4]
  inhibition: inactive
[5]
  IC50: 117 µM
[6]
  inhibition: 32%

## C[C@@H]1NN[C@@H](CN)[C@H](O)[C@@H]1O
[1]
  inhibition: 44%
Aspergillus niger [2]
  inhibition: inactive
Saccharomyces cerevisiae [3]
  inhibition: inactive
Prunus dulcis [4]
  inhibition: inactive
[6]
  inhibition: inactive

## C[C@H]1[C@@H](O)[C@@H](O)[C@H](CNC(=O)[C@@H](N)CCCCN)NN1C(=O)OCc1ccccc1
[1]
  inhibition: 77%
Aspergillus niger [2]
  inhibition: inactive
Saccharomyces cerevisiae [3]
  inhibition: inactive
Prunus dulcis [4]
  inhibition: inactive
[6]
  inhibition: inactive

## C[C@@H]1NN[C@@H](CNC(=O)c2ccc(-c3ccccc3)cc2)[C@H](O)[C@@H]1O
Aspergillus niger [7]
  inhibition: 21%
[8]
  inhibition: inactive
[9]
  inhibition: 85%
[5]
  IC50: 8.6 µM
  Ki: 1 µM
Saccharomyces cerevisiae [10]
  inhibition: inactive
Prunus dulcis [11]
  inhibition: inactive

## C[C@@H]1[C@@H](O)[C@@H](O)[C@H](CN)NN1C(=O)OCc1ccccc1
[1]
  inhibition: 54%
Aspergillus niger [2]
  inhibition: inactive
Saccharomyces cerevisiae [3]
  inhibition: inactive
Prunus dulcis [4]
  inhibition: inactive
[6]
  inhibition: inactive

## C[C@H]1NN[C@@H](CNC(=O)c2ccc(-c3ccccc3)cc2)[C@H](O)[C@@H]1O
[1]
  inhibition: 53%
Aspergillus niger [2]
  inhibition: inactive
Saccharomyces cerevisiae [3]
  inhibition: inactive
Prunus dulcis [4]
  inhibition: inactive
[6]
  inhibition: inactive

## C[C@H]1[C@@H](O)[C@@H](O)[C@H](CO)NN1C(=O)OCc1ccccc1
[1]
  inhibition: 35%
Aspergillus niger [2]
  inhibition: inactive
Saccharomyces cerevisiae [3]
  inhibition: inactive
Prunus dulcis [4]
  inhibition: inactive
[6]
  inhibition: inactive

## CCCCCCCCCCCC(=O)NC[C@@H]1NN[C@@H](C)[C@@H](O)[C@H]1O
[1]
  inhibition: 70%
Aspergillus niger [2]
  inhibition: inactive
Saccharomyces cerevisiae [3]
  inhibition: 51%
Prunus dulcis [4]
  inhibition: inactive
[6]
  inhibition: inactive

## C[C@@H]1[C@@H](O)[C@@H](O)[C@H](CNC(=O)[C@@H](N)Cc2ccccc2)NN1C(=O)OCc1ccccc1
[1]
  inhibition: 16%
Aspergillus niger [2]
  inhibition: inactive
Saccharomyces cerevisiae [3]
  inhibition: inactive
Prunus dulcis [4]
  inhibition: inactive
[6]
  inhibition: inactive

## C[C@@H]1NN[C@@H](CO)[C@H](O)[C@@H]1O
[1]
  inhibition: 97%
Aspergillus niger [2]
  inhibition: inactive
Saccharomyces cerevisiae [3]
  inhibition: inactive
Prunus dulcis [4]
  inhibition: inactive
[5]
  IC50: 30 µM
  Ki: 4.2 µM
[6]
  inhibition: inactive

## C[C@H]1[C@@H](O)[C@@H](O)[C@H](CNC(=O)[C@@H](N)Cc2ccccc2)NN1C(=O)OCc1ccccc1
[1]
  inhibition: 65%
Aspergillus niger [2]
  inhibition: inactive
Saccharomyces cerevisiae [3]
  inhibition: inactive
Prunus dulcis [4]
  inhibition: inactive
[6]
  inhibition: inactive

## C[C@@H]1NN[C@@H](CNC(=O)[C@@H](N)CCCCN)[C@H](O)[C@@H]1O
[1]
  inhibition: 77%
Aspergillus niger [2]
  inhibition: inactive
Saccharomyces cerevisiae [3]
  inhibition: inactive
Prunus dulcis [4]
  inhibition: inactive
[5]
  IC50: 535 µM
[6]
  inhibition: inactive

## C[C@@H]1[C@@H](O)[C@@H](O)[C@H](CO)NN1C(=O)OCc1ccccc1
[1]
  inhibition: 27%
Aspergillus niger [2]
  inhibition: inactive
Saccharomyces cerevisiae [3]
  inhibition: inactive
Prunus dulcis [4]
  inhibition: inactive
[6]
  inhibition: inactive

## C[C@H]1NN[C@@H](CNC(=O)[C@@H](N)Cc2ccccc2)[C@H](O)[C@@H]1O
[1]
  inhibition: inactive
Aspergillus niger [2]
  inhibition: inactive
Saccharomyces cerevisiae [3]
  inhibition: inactive
Prunus dulcis [4]
  inhibition: inactive
[6]
  inhibition: inactive
